Legend:
[1] = tested on: patients with reduced DPD activity; conditions: patients with germline DPYD variants / reduced DPD activity, 5FU-related toxicity; cited from earlier work
[2] = tested on: colorectal cancer patients; assay: QUASAR 2 clinical trial: cardiovascular related adverse events under capecitabine; format: in vivo, human; conditions: stage II/III colorectal cancer patients administered capecitabine (alone or plus bevacizumab), most common events cardiac chest pain and angina
Experimental: QUASAR 2, a randomised controlled trial of capecitabine+bevacizumab has been described previously (Kerr, R. S., et al. Lancet Oncol, 2016. 17(11):1543-1557; and Rosmarin, D., et al. Gut, 2015. 64(1):111-20). Briefly, participants were stage II/stage III colorectal cancer patients with performance status 0/1 and normal renal function. Patients were randomly assigned (1:1) to receive eight 3-week cycles of oral capecitabine alone (1250 mg/m^2 twice daily for 14 days followed by a break for 7 days) or the same regimen of oral capecitabine plus 16 cycles of 7.5 mg/kg bevacizumab by intravenous infusion over 90 min on day 1 of each cycle. All patients consented for use of biological samples and medical records in research. Cardiovascular toxicity was confirmed by two independent clinicians reviewing patient case report forms.
3% of colorectal cancer patients administered with capecitabine as part of the QUASAR 2 clinical trial experienced cardiovascular related adverse events. The most commonly described events were cardiac chest pain and angina. The inventors performed a genome wide association study to identify genetic markers associated with cardiovascular adverse events under an additive genetic model. Given the rarity of cardiovascular toxicity, variants with a minor allele frequency (MAF)<10% were filtered out. […]

Structure (SMILES)	patients with reduced DPD activity who experience cardiotoxicity [1]	patients who experienced cardiovascular related adverse events [2]
O=c1[nH]cc(F)c(=O)[nH]1 [5FU, 5-flurouracil]	2-5%	
CCCCCOC(=O)Nc1nc(=O)n(C2OC(C)C(O)C2O)cc1F (centres unmarked) [capecitabine, pentyl [1-(3,4-dihydroxy-5-methyltetrahydrofuran-2-yl)-5-fluoro-2-oxo-1H-pyrimidin-4-yl]carbamate]		3%
